Laboratory results as given in patent US20240352466A1, “APTAMER-siRNA FUSIONS” (APTERNA LIMITED, priority 2020, published 2024).
In the oligonucleotide strings, read from the 5' end, every base follows the letter of its sugar. An asterisk marks phosphorothioate; unmarked linkages are phosphodiester. Other units and linkages are bracketed, terminal groups are in braces. A string of capitals states the bases alone. m = 2'-O-methyl; f = 2'-fluoro

What was measured:
CEBPB mRNA [1] = assay: CEBPB mRNA transcripts (qPCR) in BNL-ME mouse cells transfected with naked and ESC siRNAs; type: cell-based; conditions: 1, 5 and 10 nM + L3K, lysed after 48 hrs, vs untreated cells
Method: The activity of naked and ESC siRNAs was investigated in mouse BNL hepatocyte cells.
BNL-ME mouse cells were seeded at a density of approximately 20,000 cells per well. The following siRNAs were tested: (m) siCEBPB (Ambion) (SEQ ID NOs: 11, 51 and 12, 52), (m) siCEBPB (Ambs63860) (ESC) (SEQ ID NOs: 17, 18), (h/m) siCEBPB (SEQ ID NOs: 7 and 8), (h/m) siCEBPB ESC (SEQ ID NOs: 15 and 16), (h) siCEBPB (AP6143-6145) (SEQ ID NOs: 9 and 10), (r) siCEBPB (Hao) (SEQ ID NOs: 13 and 14). Test siRNAs were transfected at concentrations of 1, 5 and 10 nM in the presence of Lipofectamine™ 3000 (L3K). Control treatments (untreated, mock L3K treatment, and siFLUC at 1, 5 and 10 nM) were also performed. The media was changed 24 hours following transfection, and cells lysed after 48 hrs. CEBPB mRNA transcript were quantified through qPCR.

PANC-Luc cells = assay: TfR-siCEBPb in mouse model of pancreatic cancer with liver metastasis; type: in vivo; conditions: NOD/SCID mice, 15 mg/kg subcutaneous; for increase in photon count (BTL) relative to PBS and TfR-Fluc controls: after 3 weeks
Method: The anti-tumour effects of TfR-siCEBPb was investigated in a mouse model of pancreatic cancer with liver metastasis
Treatment group 1 was administered PBS as a negative control. Treatment group 2 was a TfR-siFLUC construct (SEQ ID NO:32, conjugated to SEQ ID NO:1), as described previously. Treatment groups 3 and 4 was administered ESC modified siCEBPb sequences from Example 4 linked to TfR aptamer SEQ ID NO: 40, an ESC-modified version of the TfR aptamer laid out in SEQ ID NO:1, via a disulphide bridge as described previously. Group 3 is treated with a ribonucleic acid comprising the human-mouse cross reactive siCEBPb described previously, whilst Group 4 is treated with a ribonucleic acid comprising a mouse siCEBPb. These ribonucleic acids correspond to TFR-SS-siCEBPb seq 1 (SEQ ID NO: 41+50) and TfR-SS-siCEBPb seq 2 (SEQ ID NO:34 and 47) respectively.
Each group consisted of five 6-week-old NOD/SCID mice. Three additional mice were included for baseline.
Fourteen days prior to the first dose, mice underwent tumour challenge by performing intrahepatic tumor implantation by injecting […] of a monocellular suspension (in PBS) containing 1×10^6 PANC-Luc cells into a region in the middle lobe of the livers of 6-week-old female NOD/SCID. The day prior to the first dose, mice underwent bioluminescence tumour imaging (BTL) and were weighed to set the week 0 baseline.
Doses were administered as a 100 μL injection on injection days as outlined in Table 2.
At day 21 (week 3), BTL and body weight were recorded, and blood samples were taken, along with pathological sections of pancreas, tumour and liver for study and cryopreservation. The schema of the experiments is shown as FIG. 6.

[2] = system: pancreatic cancer with liver metastasis; assay: Combination of TfR-siCEBPb with PD-1 inhibitor pembrolizumab in mouse model of pancreatic cancer with liver metastasis; type: in vivo
Description: The combinatorial anti-tumour effects of TfR-siCEBPb and PD-1 inhibitor pembrolizumab were investigated in the mouse model of pancreatic cancer with liver metastasis. The TfR-siCEBPb (ESC) and TfR-siFLUC sequences from Example 5 were used in this study.
The treatment groups were as follows:
Fourteen days prior to the first dose, mice underwent tumour challenge. The day prior to, and 21 days following the first dose, mice underwent bioluminescence tumour imaging (BTL).

CEBPB mRNA [3] = assay: CEBPB mRNA expression in primary mouse hepatocytes exposed to TfR-SS-(h/m) siCEBPb; type: cell-based
Description: The human siCEBPbeta sequence was aligned with chromosome 3 of the mouse genome (Accession NC_0344592.1), in which the CEBPbeta gene is located, using Basic Local Alignment Search Tool (BLAST, https://blast.ncbi.nlm.nih.gov). […] To make a human/mouse cross-reactive siRNA, this sequence was substituted in the sense (G to A) and antisense (C to U) strands. The sense and antisense strands of this human/mouse crossreactive (h/m) siCEBPb correspond to SEQ ID NOs: 15 and 16 respectively. TfR-SS-MALATI siRNA was included as an siRNA effector control.
Primary mouse hepatocytes were exposed to TfR-SS-MALATI (100 nM, 500 nM and 1000 nM) or TfR-SS-(h/m) siCEBPb (100 nM, 500 nM and 1000 nM), or were untreated, and the effects on CEBPB mRNA expression determined as outlined previously.

p21 = assay: qRT-PCR of p21 gene expression in PANC-1, Sup-B15 and CCFR-CEM cell lines; type: cell-based, human; conditions: PANC-1, Sup-B15 and CCFR-CEM cells; 400 nM and 800 nM; normalized to GAPDH
Method: (§1) In order to evaluate the effects of TfR aptamer-small RNAs, experiments were performed in PANC-1, Sup-B15 and CCFR-CEM cell lines.
(§2) The TfR-SS-siCEBPB construct as described in Example 1 was selected for these experiments. A TfR aptamer (SEQ ID NO:1) fused via a disulphide bridge (SS) to siRNA for MALATI (TfR-MALATI siR) was generated as a negative control for siCEBPB activity. The siCEBPB (SEQ ID NO:9) without a TfR aptamer delivery system was also included for comparative purposes.
(§3) Cells were seeded in plates on Day 0, and the first transfection of TfR aptamer-small RNAs was performed on day 1. The second transfection of TfR aptamer-small RNAs was performed on day 2. Sampling was performed on day 3. Total RNA extraction was performed on samples prior to qRT-PCR quantification of GAPDH, CEBPA, CEBPB, and p21 gene expression. Expression was normalized to GAPDH.
(§4) Transfections were performed at 400 nM and 800 nM concentrations.

CEBPA = assay: qRT-PCR of CEBPA gene expression in PANC-1, Sup-B15 and CCFR-CEM cell lines; type: cell-based, human; conditions: PANC-1, Sup-B15 and CCFR-CEM cells; 400 nM and 800 nM; normalized to GAPDH
Method: as §1, §2, §3, §4

CEBPB = assay: qRT-PCR of CEBPB gene expression in PANC-1, Sup-B15 and CCFR-CEM cell lines; type: cell-based, human; conditions: PANC-1, Sup-B15 and CCFR-CEM cells; 400 nM and 800 nM; normalized to GAPDH
Method: as §1, §2, §3, §4

CEBPA mRNA = CEBPA mRNA levels in Panc1 cells after TfR aptamer-saCEBPA constructs, active (L2K) and passive delivery; type: cell-based, human; conditions: for CEBPA mRNA levels: passive delivery
Description: In order to test whether cleavable […] bridge (SS) linkers improved TfR aptamer delivery of small RNA, a series of constructs were made by fusing the 22nt TfR binding aptamer (SEQ ID NO:1) to: i. a CEBPalpha small activating RNA (saCEBPa, SEQ ID NO:24) ii. CEBPbeta small interfering RNA (siCEBPb, SEQ ID NO:9), or iii. siTTR (SEQ ID NO:28).
For the saCEBPa and […] constructs, variants were produced where the aptamer and small RNAs were linked through a disulphide linker (SS).
In order to compare the effects of the SS linker on active and passive delivery, constructs were applied to cells in the presence and absence of transfection agent Lipofectamine™ 2000 (L2K, ThermoFisher Scientific).
The effects of the constructs on CEBPA and B mRNA were measured in Panc1 (human pancreatic cancer cell line) cells. Cells were seeded at a density of approximately 50,000 per well in a 24 well plate, in antibiotic free media with no trypsin (Accutase®). Constructs were applied to cells at 10, 500 or 1000 nM concentration, and mRNA levels measured after incubation for 72 hrs.

Molecule: (h/m) siCEBPB: human/mouse cross reactive naked CEBPB siRNA (AP6143), SEQ ID NOs: 7 and 8 (chain 1 CUGAGUAAUCACUUAAAGAUU; chain 2 UCUUUAAGUGAUUACUCAGUU; unmodified RNA)
- CEBPB mRNA expression (CEBPB mRNA [1]): below half that of the untreated cells

Molecule: TfR-SS-(h/m) siCEBPb ESC seq 2: ESC modified human-mouse cross reactive siCEBPb linked to TfR aptamer SEQ ID NO:40 via a disulphide bridge (SEQ ID NO: 34 and 47) (chain 1 UUUAUUCACAUUUUUGAAUUGA; chain 2 CUGAGUAAUCGCUUAAAGAUU; chain 1: 2'-fluoro at CU, RNA at AG, backbone not given here; chain 2: chemistry not given here; further chemistry not fully specified)
- body weight at 3 weeks relative to week 0 (PANC-Luc cells): body weight gain
- increase in photon count (BTL) relative to PBS and TfR-Fluc controls (PANC-Luc cells): lower
- effects on IVIS, body weight, tumour volume and weight, seq 2 compared with seq-1 (PANC-Luc cells; week 3): more pronounced
- tumour burden relative to controls (PANC-Luc cells; week 3): ability to reduce tumour burden
- tumour volume (PANC-Luc cells; week 3): statistically significant lower
- tumour weight (PANC-Luc cells; week 3): statistically significant lower
- effect on animal weight ([2]; in combination with pembrolizumab): no effect on animal weight

Molecule: TfR-SS-(h/m) siCEBPb: TfR aptamer linked via SS to human/mouse crossreactive siCEBPb (SEQ ID NOs: 15 and 16) (chain 1 fCmUfGmAfGmUfAfAfUmCfAmCfUmUfAmAfAmGfA*mU*mU; chain 2 mU*fCmU*fUmUfAmAfGmUfGmAmUmUfAmCfUmCfAmG*mU*mU; TfR aptamer attached via disulphide linker, attachment site not given here)
- relative CEBPB mRNA expression (CEBPB mRNA [3]; 100 nM): reduced slightly
- relative CEBPB mRNA expression (CEBPB mRNA [3]; 500 nM): strongest effect
- relative CEBPB mRNA expression (CEBPB mRNA [3]; 1000 nM): more pronounced

Molecule: TfR-SS-(m) siCEBPb ESC seq 1: ESC modified mouse siCEBPb linked to TfR aptamer SEQ ID NO:40 via a disulphide bridge (SEQ ID NO: 41+50) (chain 1 UUUAUUCACAUUUUUGAAUUGA; chain 2 GCACCCUGCGGAACUUGUUUU; ESC modified; disulphide linker; modified_base 1 OTHER; 2-Prime-fluoro uracil; modified_base 2 OTHER; modified_base 3 OTHER; modified_base 5 OTHER; modified_base 6 OTHER; modified_base 7 OTHER; 2-Prime-fluoro cytosine; modified_base 9 OTHER; modified_base 11 OTHER; modified_base 12 OTHER; 2-P; 2-Prime-fluoro guanine; 2-Prime-O-methyl cytosine; 2-Prime-fluoro adenine; modified_base 4 OTHER; mo)
- increase in photon count (BTL) relative to PBS and TfR-Fluc controls (PANC-Luc cells): lower
- tumour burden relative to controls (PANC-Luc cells; week 3): ability to reduce tumour burden
- tumour volume (PANC-Luc cells; week 3): Slightly lower
- tumour weight (PANC-Luc cells; week 3): Slightly lower

Molecule: pembrolizumab: PD-1 inhibitor pembrolizumab [reference compound]
- tumour volume compared to PBS-treated controls ([2]; week 3, pembrolizumab 0.25 mg/kg, TfR constructs 10 mg/kg): smaller tumour volumes

Molecule: siCEBPbeta: human CEBPB siRNA (SEQ ID NOs: 9 and 10) without a TfR aptamer delivery system (chain 1 CUGAGUAAUCGCUUAAAGAUU; chain 2 UCUUUAAGCGAUUACUCAGUU; listed as RNA, chemistry not given here)
- p21 gene expression (p21): no statistically significant change
- C/EBPA gene expression (CEBPA): no statistically significant change
- CEBPbeta gene expression (CEBPB): no statistically significant change

B1: TfR-SS-saCEBPA: TfR aptamer SEQ ID NO:1 linked through a disulphide linker (SS) to saCEBPa (SEQ ID NO:38+49, 39) (nucleic acid)
chain 1: UUUAUUCACAUUUUUGAAUUGA
chain 2: UUUAUUCACAUUUUUGAAUUGA
chain 3: GACCAGUGACAAUGACCGCUU
chain 4: GCGGUCAUUGUCACUGGUCUU
modifications: TfR aptamer attached via disulphide linker, further chemistry not given here
- relative expression of CEBPA mRNA (CEBPA mRNA; 10 nM + L2K (active delivery), 72 hrs, vs untreated samples): within 1 standard deviation of untreated samples
- CEBPA mRNA levels (CEBPA mRNA; 500 nM and 1000 nM, 72 hrs): lower
- CEBPA mRNA levels (CEBPA mRNA; 1000 nM, vs control): within one standard deviation of the control
